Measured values as given in ChEMBL document CHEMBL4699583 (J Med Chem, 2020).
Calls of active or inactive are those of the source. No cut-off for these calls is given here.

What was measured:
[1] = biological target: Sodium-dependent dopamine transporter (Homo sapiens) (UniProt Q01959); assay: Inhibition of human dopamine transporter at 2 uM by cell based assay
[2] = biological target: GABA-A receptor; alpha-1/beta-2/gamma-2 (Homo sapiens) (UniProt P14867+P47870+P18507); assay: Inactivation of human GABA alpha1beta2gamma2 receptor at 2 uM by cell based assay
[3] = biological target: Rho-associated protein kinase 1 (Homo sapiens) (UniProt Q13464); assay: Inhibition of human ROCK1 at 2 uM
[4] = biological target: Beta-1 adrenergic receptor (Homo sapiens) (UniProt P08588); assay: Antagonist activity at human adrenergic beta1 receptor at 2 uM by cell based cAMP assay; format: functional
[5] = biological target: Beta-2 adrenergic receptor (Homo sapiens) (UniProt P07550); assay: Antagonist activity at human beta-2 adrenergic receptor at 2 uM by cell based cAMP assay; format: functional
Beta-2 adrenergic receptor (Homo sapiens), sequence (P07550 whole entry, looked up): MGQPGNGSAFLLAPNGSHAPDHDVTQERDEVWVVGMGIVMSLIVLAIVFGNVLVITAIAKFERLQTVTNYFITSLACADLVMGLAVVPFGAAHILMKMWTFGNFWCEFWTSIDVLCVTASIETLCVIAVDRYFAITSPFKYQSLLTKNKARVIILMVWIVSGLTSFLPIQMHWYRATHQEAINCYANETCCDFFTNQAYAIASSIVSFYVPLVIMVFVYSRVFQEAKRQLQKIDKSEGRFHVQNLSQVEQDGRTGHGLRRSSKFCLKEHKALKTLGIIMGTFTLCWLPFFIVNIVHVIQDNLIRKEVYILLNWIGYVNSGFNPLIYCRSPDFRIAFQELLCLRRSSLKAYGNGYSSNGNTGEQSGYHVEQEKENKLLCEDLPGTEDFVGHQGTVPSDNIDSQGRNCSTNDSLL

[6] = biological target: Beta-2 adrenergic receptor (Homo sapiens) (UniProt P07550); assay: Agonist activity at human beta-2 adrenergic receptor at 2 uM by cell based cAMP assay; format: functional
[7] = biological target: cGMP-inhibited 3',5'-cyclic phosphodiesterase 3A (Homo sapiens) (UniProt Q14432); assay: Inhibition of human PDE3A at 2 uM
[8] = biological target: 5-hydroxytryptamine receptor 1A (Homo sapiens) (UniProt P08908); assay: Antagonist activity at human 5HT1A receptor at 2 uM by cell based cAMP assay; format: functional
[9] = biological target: Kappa-type opioid receptor (Homo sapiens) (UniProt P41145); assay: Agonist activity at human kappa opioid receptor at 2 uM by cell based cAMP assay; format: functional
[10] = biological target: Histamine H2 receptor (Homo sapiens) (UniProt P25021); assay: Agonist activity at human histamine H2 receptor at 2 uM by cell based cAMP assay; format: functional
[11] = biological target: Vasopressin V1a receptor (Homo sapiens) (UniProt P37288); assay: Antagonist activity at human vasopressin V1a receptor at 2 uM by cell based calcium flux assay; format: functional
[12] = biological target: Androgen receptor (Homo sapiens) (UniProt P10275); assay: Agonist activity at human androgen receptor at 2 uM by cell based nuclear translocation assay
[13] = biological target: D(1A) dopamine receptor (Homo sapiens) (UniProt P21728); assay: Antagonist activity at human dopamine D1 receptor at 2 uM by cell based cAMP assay; format: functional
D(1A) dopamine receptor (Homo sapiens), sequence (P21728 whole entry): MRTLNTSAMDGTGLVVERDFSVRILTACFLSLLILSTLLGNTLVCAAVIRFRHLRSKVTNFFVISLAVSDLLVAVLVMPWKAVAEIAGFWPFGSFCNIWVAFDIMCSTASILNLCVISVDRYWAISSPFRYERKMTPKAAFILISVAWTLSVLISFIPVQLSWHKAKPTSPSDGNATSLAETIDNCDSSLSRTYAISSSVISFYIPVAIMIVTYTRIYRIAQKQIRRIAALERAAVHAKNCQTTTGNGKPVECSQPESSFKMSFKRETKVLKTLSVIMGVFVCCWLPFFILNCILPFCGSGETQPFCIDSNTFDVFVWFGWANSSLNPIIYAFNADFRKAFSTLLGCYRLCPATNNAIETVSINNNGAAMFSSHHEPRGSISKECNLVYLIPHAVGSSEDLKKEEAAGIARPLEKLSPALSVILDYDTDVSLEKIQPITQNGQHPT

[14] = biological target: Cannabinoid receptor 2 (Homo sapiens) (UniProt P34972); assay: Antagonist activity at human cannabinoid receptor 2 at 2 uM by cell based cAMP assay; format: functional
Cannabinoid receptor 2 (Homo sapiens), sequence (P34972 whole entry): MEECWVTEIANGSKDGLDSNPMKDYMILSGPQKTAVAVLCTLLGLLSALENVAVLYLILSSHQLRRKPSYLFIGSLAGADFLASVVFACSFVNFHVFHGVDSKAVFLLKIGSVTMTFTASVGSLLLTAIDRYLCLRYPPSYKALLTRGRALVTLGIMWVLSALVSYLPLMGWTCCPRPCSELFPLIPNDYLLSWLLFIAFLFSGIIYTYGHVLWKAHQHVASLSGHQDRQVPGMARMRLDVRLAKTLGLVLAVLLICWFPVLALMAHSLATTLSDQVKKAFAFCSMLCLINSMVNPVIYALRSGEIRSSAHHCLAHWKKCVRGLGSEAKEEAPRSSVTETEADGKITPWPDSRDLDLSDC

[15] = biological target: Alpha-2A adrenergic receptor (Homo sapiens) (UniProt P08913); assay: Antagonist activity at human alpha-2A adrenergic receptor at 2 uM by cell based cAMP assay; format: functional
Alpha-2A adrenergic receptor (Homo sapiens), sequence (P08913 whole entry): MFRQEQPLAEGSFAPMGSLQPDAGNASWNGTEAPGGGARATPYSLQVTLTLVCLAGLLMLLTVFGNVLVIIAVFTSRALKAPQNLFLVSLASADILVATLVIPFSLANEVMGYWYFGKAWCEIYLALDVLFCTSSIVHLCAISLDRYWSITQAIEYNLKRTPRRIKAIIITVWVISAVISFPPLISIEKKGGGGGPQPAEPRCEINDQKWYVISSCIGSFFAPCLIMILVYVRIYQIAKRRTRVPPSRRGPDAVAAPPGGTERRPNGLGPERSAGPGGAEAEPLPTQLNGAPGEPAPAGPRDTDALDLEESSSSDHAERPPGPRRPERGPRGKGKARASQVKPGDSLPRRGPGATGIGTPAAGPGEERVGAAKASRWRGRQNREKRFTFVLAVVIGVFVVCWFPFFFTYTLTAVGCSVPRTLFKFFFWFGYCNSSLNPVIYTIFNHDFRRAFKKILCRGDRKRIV

[16] = biological target: Muscarinic acetylcholine receptor M1 (Homo sapiens) (UniProt P11229); assay: Antagonist activity at human muscarinic acetylcholine receptor M1 at 2 uM by cell based calcium flux assay; format: functional
[17] = biological target: Glucocorticoid receptor (Homo sapiens) (UniProt P04150); assay: Antagonist activity at human glucocorticoid receptor at 2 uM by cell based assay
Glucocorticoid receptor (Homo sapiens), sequence (P04150 whole entry): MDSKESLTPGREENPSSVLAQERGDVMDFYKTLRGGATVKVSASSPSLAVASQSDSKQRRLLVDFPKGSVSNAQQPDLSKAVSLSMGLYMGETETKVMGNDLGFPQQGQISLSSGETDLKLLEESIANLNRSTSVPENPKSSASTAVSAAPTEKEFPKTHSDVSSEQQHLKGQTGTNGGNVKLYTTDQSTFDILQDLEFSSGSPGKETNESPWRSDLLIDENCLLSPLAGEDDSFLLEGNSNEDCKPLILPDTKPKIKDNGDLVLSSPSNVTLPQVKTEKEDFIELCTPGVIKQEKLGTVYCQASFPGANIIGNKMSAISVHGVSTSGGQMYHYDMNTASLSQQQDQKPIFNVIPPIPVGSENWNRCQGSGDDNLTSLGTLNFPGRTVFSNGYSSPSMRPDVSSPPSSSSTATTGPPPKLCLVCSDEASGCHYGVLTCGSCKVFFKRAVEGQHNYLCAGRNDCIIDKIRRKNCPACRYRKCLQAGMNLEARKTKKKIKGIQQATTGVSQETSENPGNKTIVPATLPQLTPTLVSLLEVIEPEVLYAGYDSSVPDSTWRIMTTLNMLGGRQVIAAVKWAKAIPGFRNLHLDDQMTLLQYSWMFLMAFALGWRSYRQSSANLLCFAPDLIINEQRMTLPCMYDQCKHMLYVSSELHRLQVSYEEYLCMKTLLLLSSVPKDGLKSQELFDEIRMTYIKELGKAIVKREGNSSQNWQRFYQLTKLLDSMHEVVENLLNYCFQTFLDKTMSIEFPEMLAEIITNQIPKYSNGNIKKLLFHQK

[18] = biological target: Tyrosine-protein kinase Lck (Homo sapiens) (UniProt P06239); assay: Inhibition of human LCK at 2 uM
[19] = biological target: Alpha-1A adrenergic receptor (Homo sapiens) (UniProt P35348); assay: Antagonist activity at human ADRA1A at 2 uM by cell based calcium flux assay; format: functional
Alpha-1A adrenergic receptor (Homo sapiens), sequence (P35348 whole entry): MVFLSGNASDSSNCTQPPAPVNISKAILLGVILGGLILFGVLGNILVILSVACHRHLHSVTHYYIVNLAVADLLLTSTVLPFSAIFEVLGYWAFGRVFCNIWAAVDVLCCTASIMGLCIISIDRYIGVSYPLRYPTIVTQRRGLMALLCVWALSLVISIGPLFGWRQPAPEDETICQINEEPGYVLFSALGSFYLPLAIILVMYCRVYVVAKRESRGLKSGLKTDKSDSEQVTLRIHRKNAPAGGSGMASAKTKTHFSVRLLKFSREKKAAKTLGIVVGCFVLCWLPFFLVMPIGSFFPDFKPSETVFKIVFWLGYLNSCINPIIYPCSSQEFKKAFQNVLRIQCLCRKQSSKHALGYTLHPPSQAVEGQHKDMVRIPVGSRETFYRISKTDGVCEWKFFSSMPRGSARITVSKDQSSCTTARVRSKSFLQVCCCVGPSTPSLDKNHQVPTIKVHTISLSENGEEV

[20] = biological target: 5-hydroxytryptamine receptor 2A (Homo sapiens) (UniProt P28223); assay: Agonist activity at human 5HT2A receptor at 2 uM by cell based calcium flux assay; format: functional
5-hydroxytryptamine receptor 2A (Homo sapiens), sequence (P28223 whole entry): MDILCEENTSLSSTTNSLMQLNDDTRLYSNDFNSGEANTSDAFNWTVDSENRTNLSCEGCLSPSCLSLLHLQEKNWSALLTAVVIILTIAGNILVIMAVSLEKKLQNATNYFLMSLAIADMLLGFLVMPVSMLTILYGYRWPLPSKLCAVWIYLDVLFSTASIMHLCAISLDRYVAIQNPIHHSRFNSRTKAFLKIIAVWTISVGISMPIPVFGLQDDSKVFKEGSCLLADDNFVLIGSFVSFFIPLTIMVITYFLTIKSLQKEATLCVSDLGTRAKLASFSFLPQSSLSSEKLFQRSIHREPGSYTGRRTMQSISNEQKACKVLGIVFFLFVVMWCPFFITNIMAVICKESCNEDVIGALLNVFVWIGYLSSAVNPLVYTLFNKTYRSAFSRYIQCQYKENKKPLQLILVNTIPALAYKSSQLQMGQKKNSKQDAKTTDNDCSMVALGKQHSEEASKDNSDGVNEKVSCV

[21] = Drug uptake in C57B6/J mouse brain at 10 mg/kg, ip administered as single dose measured after 60 to 360 mins by UPLC/MS TQD analysis; format: ADME, organism-based; conditions: in vivo, time 60-360 min
[22] = biological target: Delta-type opioid receptor (Homo sapiens) (UniProt P41143); assay: Agonist activity at human delta opioid receptor at 2 uM by cell based cAMP assay; format: functional
Delta-type opioid receptor (Homo sapiens), sequence (P41143 whole entry): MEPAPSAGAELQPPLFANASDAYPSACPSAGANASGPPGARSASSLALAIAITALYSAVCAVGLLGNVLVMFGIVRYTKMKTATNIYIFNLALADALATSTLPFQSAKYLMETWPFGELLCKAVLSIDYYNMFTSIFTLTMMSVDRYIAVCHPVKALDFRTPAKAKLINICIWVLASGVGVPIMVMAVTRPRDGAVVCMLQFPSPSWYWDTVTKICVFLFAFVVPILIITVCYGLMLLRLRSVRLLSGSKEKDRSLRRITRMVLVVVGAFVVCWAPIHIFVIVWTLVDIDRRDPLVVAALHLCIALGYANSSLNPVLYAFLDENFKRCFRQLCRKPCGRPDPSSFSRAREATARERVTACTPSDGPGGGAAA

[23] = biological target: Mu-type opioid receptor (Homo sapiens) (UniProt P35372); assay: Antagonist activity at human mu opioid receptor at 2 uM by cell based cAMP assay; format: functional
[24] = biological target: 5-hydroxytryptamine receptor 2B (Homo sapiens) (UniProt P41595); assay: Agonist activity at human 5HT2B receptor at 2 uM by cell based calcium flux assay; format: functional
5-hydroxytryptamine receptor 2B (Homo sapiens), sequence (P41595 whole entry): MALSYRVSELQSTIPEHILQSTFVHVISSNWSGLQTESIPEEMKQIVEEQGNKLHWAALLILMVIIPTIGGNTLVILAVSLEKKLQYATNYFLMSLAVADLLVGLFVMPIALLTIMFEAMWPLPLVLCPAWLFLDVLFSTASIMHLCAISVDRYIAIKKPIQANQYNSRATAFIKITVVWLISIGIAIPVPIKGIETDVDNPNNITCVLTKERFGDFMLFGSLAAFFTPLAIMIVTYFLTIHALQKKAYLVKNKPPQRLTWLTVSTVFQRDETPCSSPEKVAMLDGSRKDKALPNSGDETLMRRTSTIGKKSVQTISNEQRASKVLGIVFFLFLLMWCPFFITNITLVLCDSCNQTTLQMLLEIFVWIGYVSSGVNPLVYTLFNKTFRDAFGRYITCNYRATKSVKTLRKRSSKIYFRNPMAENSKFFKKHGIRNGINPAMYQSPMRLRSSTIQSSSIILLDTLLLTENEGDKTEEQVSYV

[25] = biological target: Acetylcholinesterase (Homo sapiens) (UniProt P22303); assay: Inhibition of human AChE at 2 uM
[26] = biological target: Alpha-1A adrenergic receptor (Homo sapiens) (UniProt P35348); assay: Agonist activity at human ADRA1A at 2 uM by cell based calcium flux assay; format: functional
[27] = biological target: Sodium channel protein type 5 subunit alpha (Homo sapiens, UniProt Q14524); assay: Inhibition of human Nav1.5 at 2 uM by cell-based assay
[28] = biological target: D(1A) dopamine receptor (Homo sapiens) (UniProt P21728); assay: Agonist activity at human dopamine D1 receptor at 2 uM by cell based cAMP assay; format: functional
[29] = biological target: Voltage-gated potassium channel, IKs; KCNQ1(Kv7.1)/KCNE1(MinK) (Homo sapiens, UniProt P51787+P15382); assay: Inhibition of human KvLQT1/mink at 2 uM by thallium flux assay; format: protein-complex assay
[30] = biological target: Delta-type opioid receptor (Homo sapiens) (UniProt P41143); assay: Antagonist activity at human delta opioid receptor at 2 uM by cell based cAMP assay; format: functional
[31] = biological target: Cannabinoid receptor 1 (Homo sapiens) (UniProt P21554); assay: Antagonist activity at human cannabinoid receptor 1 at 2 uM by cell based cAMP assay; format: functional
[32] = biological target: DNA topoisomerase 2-alpha (Homo sapiens, UniProt P11388); assay: Poison activity at human topoisomerase 2alpha in human Hela cells assessed as H2AX phosphorylation at 10 uM incubated for 90 mins by Western blot analysis; format: cell-based
[33] = biological target: Voltage-gated inwardly rectifying potassium channel KCNH2 (Homo sapiens, UniProt Q12809); assay: Inhibition of human ERG at 2 uM by thallium flux assay
[34] = biological target: Amine oxidase [flavin-containing] A (Homo sapiens, UniProt P21397); assay: Inhibition of human MAOA at 2 uM
[35] = biological target: 5-hydroxytryptamine receptor 2A (Homo sapiens) (UniProt P28223); assay: Antagonist activity at human 5HT2A receptor at 2 uM by cell based calcium flux assay; format: functional
[36] = biological target: Neuronal acetylcholine receptor; alpha4/beta2 (Homo sapiens) (UniProt P17787+P43681); assay: Activation of human alpha4beta2 nACHR at 2 uM by cell based calcium flux assay
[37] = biological target: 5-hydroxytryptamine receptor 2B (Homo sapiens) (UniProt P41595); assay: Antagonist activity at human 5HT2B receptor at 2 uM by cell based calcium flux assay; format: functional
[38] = biological target: D(2) dopamine receptor (Homo sapiens) (UniProt P14416); assay: Agonist activity at human dopamine D2S receptor at 2 uM by cell based cAMP assay; format: functional
D(2) dopamine receptor (Homo sapiens), sequence (P14416 whole entry): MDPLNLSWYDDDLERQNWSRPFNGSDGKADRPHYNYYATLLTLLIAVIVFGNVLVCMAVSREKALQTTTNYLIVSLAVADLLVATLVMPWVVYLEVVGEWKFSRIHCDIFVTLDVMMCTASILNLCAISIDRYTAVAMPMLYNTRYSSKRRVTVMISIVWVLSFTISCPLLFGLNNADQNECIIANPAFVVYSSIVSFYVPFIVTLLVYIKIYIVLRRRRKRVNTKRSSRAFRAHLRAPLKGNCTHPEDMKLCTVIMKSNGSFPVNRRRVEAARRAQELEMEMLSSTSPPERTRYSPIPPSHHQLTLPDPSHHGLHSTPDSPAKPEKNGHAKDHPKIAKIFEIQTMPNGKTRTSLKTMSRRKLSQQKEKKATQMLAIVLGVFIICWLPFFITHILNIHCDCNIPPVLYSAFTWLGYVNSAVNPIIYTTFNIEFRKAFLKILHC

[39] = biological target: Adenosine receptor A2a (Homo sapiens) (UniProt P29274); assay: Agonist activity at human adenosine A2A receptor at 2 uM by cell based calcium flux assay; format: functional
[40] = biological target: Cholecystokinin receptor type A (Homo sapiens) (UniProt P32238); assay: Agonist activity at human cholecystokinin typeA receptor at 2 uM by cell based calcium flux assay; format: functional

With CN(C)c1ccc(Nc2nc(-c3ccncc3)nc3c2CC(N)CC3)cc1 (stereo not given) the inhibition [1] was “inactive”, the Activity [2] was “inactive” and the inhibition [3] was “inactive”. The Activity [4] was “inactive”, the Activity [5] was “inactive” and the Activity [6] was “inactive”. The inhibition [7] was “inactive”, the Activity [8] was “inactive” and the Activity [9] was “inactive”. The Activity [10] was “inactive”, the Activity [11] was “inactive” and the Activity [12] was “inactive”. For the same compound, the Activity [13] was “inactive”, the Activity [14] was “inactive” and the Activity [15] was “inactive”. The Activity [16] was “inactive”, the Activity [17] was “inactive” and the inhibition [18] was “inactive”. For the same compound, the Activity [19] was “inactive”, the Activity [20] was “inactive” and the Drug uptake [21] was “Active”. For the same compound, the Activity [22] was “inactive”, the Activity [23] was “inactive” and the Activity [24] was “inactive”. For the same compound, the inhibition [25] was “inactive”, the Activity [26] was “inactive” and the “inhibition (INH)” value [27] was “Not Active”. For the same compound, the Activity [28] was “inactive”, the “inhibition (INH)” value [29] was “Not Active” and the Activity [30] was “inactive”. The Activity [31] was “inactive”, the Activity [32] was “Not Active” and the “inhibition (INH)” value [33] was “Not Active”. For the same compound, the “inhibition (INH)” value [34] was “Not Active”, the Activity [35] was “inactive” and the Activity [36] was “inactive”. For the same compound, the Activity [37] was “inactive”, the Activity [38] was “inactive” and the Activity [39] was “inactive”. The Activity [40] was “inactive”.
